# Source: patent US10906977B2, “Enhancing the therapeutic activity of immune checkpoint inhibitor” (Maine Medical Center Research Institute, priority 2016, dated 2021)
# System: PDL-1
# Experiment: PDL-1 protein in M21 melanoma cells on immobilized XL313 epitope (Western blot)
# Assay type: cell-based, human
# Details: 15 minute incubation; vs uncoated wells; FIG. 15
# Procedure: Integrin αvβ3 expressing melanoma cells (M21) were seeded on control uncoated wells or wells immobilized with the XL313 cryptic collagen epitope (RGDKGE (SEQ ID NO: 1)). Following a 15 minute incubation cell lysates were prepared. The relative levels of PDL-1 or loading control β-actin were assessed by Western blot.
# Integrin αvβ3 expressing melanoma cells (M21) were seeded onto control uncoated wells or wells immobilized with the XL313 cryptic collagen epitope (RGDKGE (SEQ ID NO: 1)) (FIG. 15). Following an incubation period, cell lysates were prepared and relative levels of PDL-1 were assessed.
substance,measurement,value
RGDKGE (immobilized on wells) [XL313 epitope],levels of PDL-1 protein in M21 melanoma cells following binding,enhanced levels of PDL-1 protein
